The text below walks through data of patent publication US8367332B2, “Detection and quantification of abasic site formation in vivo” (Case Western Reserve University, priority 2008, dated 2013).

Molecules are shown by their SMILES.

The test system of series [1] is AP sites. As to the kind of experiment: ARP assay of AP sites in A375 melanoma cells. In kind it is cell-based. As to conditions: 12.5 mM co-treatment with TMZ, 24 hr. How it is done: FIG. 5 illustrates a graph showing AP sites increased in melanoma cells (A375) after treatment with TMZ in a dose-dependent manner. Using ARP assay, formation of AP sites in A375 melanoma cells were measured. Cells were treated with TMZ (0-1500 μM) alone or TMZ plus MX (12.5 mM) for 24 hr for a dose-dependent assay (black), or treated with TMZ and MX (12.5 mM) for 24 hr, or treated with TMZ and F422 (12.5 mM) for 24 hours.

Series [2] has as its system AP sites. Briefly: In vivo blocking experiment with unlabelled MX (microPET, glioma tumors). Details: species or system mice. As to conditions: TMZ 80 mg/kg; unlabelled MX 2-10 mg/kg 30 min before [^11C]MX 2 mCi/kg; p value=0.003. How it is done:
FIG. 4 illustrates; (A) plots of time-radioactivity courses of [^11C]MX in the glioma tumors before and after blocking by unlabelled MX; and (B) a graph showing average SUV between 0-60 min (n=4, where n is the number of tumors imaged and analyzed). Decrease of radioactivity concentration indicates in vivo blocking of AP binding sites by unlabeled MX (p value=0.003).
Thus, we conducted in vivo blocking experiment in tumor mice with unlabelled MX as a further test of whether the difference in radioactivity concentrations between TMZ-treated and untreated tumors is due to specific binding of [^11C]MX to AP sites. For this purpose, 4 tumor-bearing mice were treated with TMZ (80 mg/kg) for 10 min. Following the treatment, two mice were injected with unlabelled MX (2-10 mg/kg) and two were injected with vehicle control. Thirty minutes later, 2 mCi/kg of [^11C]MX was administered to each mouse and microPET imaging was performed. In each case, a vehicle-treated and an unlabeled MX-treated mouse were imaged side-by-side. Dynamic acquisition was carried out for 60 min in list mode.

In series [3] the test system is AP sites. As to the kind of experiment: microPET of [^11C]MX in melanoma (WM164) xenografts, TMZ-treated vs non-treated. In kind it is in vivo, mice. As to conditions: melanoma xenograft. As to the method: (§1) Melanoma and glioma xenografts were prepared according to previously published procedures. Briefly, glioma (U87) and melanoma (WM164) tumor cells (5×10^6) were injected into the bilateral flanks of female athymic NRC nude mice (6-8 weeks of age). When the volume of tumor nodules reached 150-200 mm^3, mice are randomly assigned to control or treatment groups (4 mice/group).
Following MRI studies, the mice were transferred to a Concord R4 microPET scanner under anesthesia. The same holder was used for microPET studies so that the tumor positions of the mice remain unchanged in order to facilitate image coregistration with MRI. Subsequently, dynamic microPET scans were performed over 60 min in a list mode, immediately after a bolus injection of ca. 500 μCi of [^11C]MX via the tail vein. Body temperature in the anesthetized animals was monitored using a rectal temperature probe and maintained at 37+/−2° C. with a heating lamp or a heating pad.
Following MRI and microPET studies, we conducted quantitative image analysis in order to evaluate the in vivo pharmacokinetic profiles of [^11C]MX in tumor tissues. We defined the tumor tissues as the region of interest (ROI) through coregistration of microPET images with MRI images. The co-registered images were used for quantitative image analysis to determine [^11C]MX uptake and retention associated with tumor tissues. The radioactivity concentration in the tumor regions is expressed in terms of standard uptake volume (SUV) [(μCi/cc)/(uCi/g)] as a function of time.
Because TMZ, like dacarbazine, has been used in the treatment patients with metastatic malignant melanoma, we first conducted microPET studies in human (WM164) melanoma xenograft tumor model. In each experiment, two mice bearing melanoma xenografts were used, one treated with TMZ (80 mg/kg) to induce DNA damage and the other used as negative control. Prior to microPET scans, the mice were placed in a 7T MRI scanner and T2-weighted MRI images were acquired following the above-mentioned protocol. […]

The test system of series [4] is AP sites. As to the kind of experiment: microPET of [^11C]MX in flank glioma (U87) xenografts, TMZ-treated vs non-treated. Format: in vivo, mice. As to conditions: flank glioma xenograft; TMZ 80 mg/kg; 60 min scan. How it is done: as §1
Following MRI studies, the mice were transferred to a Concord R4 microPET scanner under anesthesia. The same holder was used for microPET studies so that the tumor positions of the mice remain unchanged in order to facilitate image coregistration with MRI. […] Body temperature in the anesthetized animals was monitored using a rectal temperature probe and maintained at 37+/−2° C. with a heating lamp or a heating pad.
Following MRI and microPET studies, we conducted quantitative image analysis in order to evaluate the in vivo pharmacokinetic profiles of [^11C]MX in tumor tissues. […] The co-registered images were used for quantitative image analysis to determine [^11C]MX uptake and retention associated with tumor tissues. The radioactivity concentration in the tumor regions is expressed in terms of standard uptake volume (SUV) [(μCi/cc)/(uCi/g)] as a function of time.
Malignant glioma is another type of cancer that can be effectively treated with TMZ because TMZ can readily penetrate the blood-brain barrier. […]

`CON` [MX, methoxyamine]: the “ARP detected AP sites on co-treatment with TMZ” value in the series on AP sites [1] is given as “reduced the ARP detected AP sites”. The “concentration of tumor-associated radioactivity after blocking with unlabelled MX” value with AP sites [2] is given as “significantly decreased”.
`[11CH3]ON` [[^11C]MX, (^11C)methoxyamine]: the “radioactivity concentration in tumor, TMZ-treated vs non-treated mice” value with AP sites [3] (TMZ 80 mg/kg, 10 min post injection of [^11C]MX (ca. 2 mCi/kg i.v.)) is listed as 1.6 fold. In addition, the “tumor uptake of [^11C]MX in TMZ-treated vs non-TMZ treated mice” value in the series on AP sites [3] (TMZ 80 mg/kg, 60 min scan) is on record as “increased uptake”. Also, in the series with AP sites [3] (i.v. ca. 2 mCi/kg, microPET), the “entry of [^11C]MX into tumor tissue” value was “readily entered the tumor tissue at early time points”. In addition, the “retention of [^11C]MX in tumor regions” value in the series on AP sites [4] was “higher in TMZ-treated tumor regions than in non-treated tumor regions”.
